In article PMC12418751, “Structural and functional characterization of IdeC, a novel IgG-specific protease of Streptococcus canis” (Infection and Immunity, 2025):

Target: T1, IdeC (Immunoglobulin G degrading enzyme of S. canis) (Streptococcus canis, UniProt A0A3P5YAY8)
T1 construct: gene ide; full-length construct 30-339 as printed for the C94S crystal form), His6 tag from pQE30, E. coli M15 pREP, Ni-TED purified, ~35 kDa, mainly monomer; printed PDB entries are of C94S forms
Assay: feline and canine IgG cleavage, SDS-PAGE
Format: biochemical
Settings: 2.5 uM inhibitor, 30 min preincubation at room temperature; IgG 37 C 2.5 h; cysteine protease inhibitor, irreversible (general statement)

T1 sequence (A0A3P5YAY8 entry or part of it): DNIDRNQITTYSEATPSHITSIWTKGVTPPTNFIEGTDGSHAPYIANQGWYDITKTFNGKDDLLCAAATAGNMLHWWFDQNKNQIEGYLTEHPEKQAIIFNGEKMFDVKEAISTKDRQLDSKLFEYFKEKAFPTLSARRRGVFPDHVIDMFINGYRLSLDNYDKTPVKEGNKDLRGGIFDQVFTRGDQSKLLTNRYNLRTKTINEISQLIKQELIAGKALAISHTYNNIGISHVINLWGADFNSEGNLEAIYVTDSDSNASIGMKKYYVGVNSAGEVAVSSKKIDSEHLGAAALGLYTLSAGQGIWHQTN

CC(C)C[C@H](NC(=O)[C@@H]1O[C@H]1C(=O)O)C(=O)NCCCCN=C(N)N [E-64]
feline and canine IgG cleavage, SDS-PAGE: the cysteine protease inhibitors Iodo and E-64 resulted in weaker cleavage product bands
